Reference: PMC6268179, “Synthesis, Docking Studies and Biological Evaluation of Benzo[b]thiophen-2-yl-3-(4-arylpiperazin-1-yl)-propan-1-one Derivatives on 5-HT1A Serotonin Receptors” (Molecules, 2012)

Tests used:
5-HT1A receptor [1] = biological target: T1, 5-HT1A receptor (Rattus norvegicus, UniProt P19327); assay: radioligand displacement of [3H]-8-OH-DPAT, single dose […]
T1 construct: gene Htr1a; rat cerebral cortex membranes
T1 sequence (P19327 1-422): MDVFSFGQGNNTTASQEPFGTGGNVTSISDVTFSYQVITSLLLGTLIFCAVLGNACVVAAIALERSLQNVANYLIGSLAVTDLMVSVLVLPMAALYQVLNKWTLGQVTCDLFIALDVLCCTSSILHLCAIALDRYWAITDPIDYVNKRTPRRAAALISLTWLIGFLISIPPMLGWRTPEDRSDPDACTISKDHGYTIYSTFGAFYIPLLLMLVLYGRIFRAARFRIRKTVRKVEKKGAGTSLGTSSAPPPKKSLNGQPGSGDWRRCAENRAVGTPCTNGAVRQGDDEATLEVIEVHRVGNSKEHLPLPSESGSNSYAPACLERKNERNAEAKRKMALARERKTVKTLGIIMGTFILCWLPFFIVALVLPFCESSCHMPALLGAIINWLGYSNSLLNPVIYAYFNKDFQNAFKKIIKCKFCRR

5-HT1A receptor [2] = biological target: T1, 5-HT1A receptor; assay: radioligand displacement of [3H]-8-OH-DPAT, dose-response; type: binding

Ki (5-HT1A receptor [2]) [nM]	SMILES	inhibition at 1 µM (5-HT1A receptor [1]) [%]
–	COc1ccccc1N1CCN(CCC(=O)c2cc3ccccc3s2)CC1 [7d, 3-[4-(2-Methoxyphenyl)piperazin-1-yl]-1-(benzo[b]thiophen-2-yl)-1-propanone]	52 ± 7
2300	O=C(CCN1CCN(c2ccccn2)CC1)c1cc2ccccc2s1 [7e, 1-(benzo[b]thiophen-2-yl)-3-(4-(pyridin-2-yl)piperazin-1-yl)propan-1-one]	–
